Experiment [1] has as its target T1, SinvNPC2a (Solenopsis invicta, UniProt Z9QIP2HJ34).
T1 construct: recombinant from pET28a in E. coli BL21(DE3) pLysS, soluble, Ni-IDA purified
As to the kind of experiment: fluorescence competitive binding assay, 1-NPN displacement.

The target in experiment [2] is T1, SinvNPC2a. The description is as above. This is another data set of the same source.

T1 sequence (Z9QIP2HJ34 21-153 limits assumed): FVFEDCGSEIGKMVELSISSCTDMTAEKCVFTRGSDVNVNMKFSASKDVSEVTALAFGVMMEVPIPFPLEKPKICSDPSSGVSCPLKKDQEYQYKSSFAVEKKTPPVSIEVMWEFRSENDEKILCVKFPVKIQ

As to `CCc1nc(C)cnc1C` [EDMP, 2-ethyl-3,6-dimethylpyrazine], in experiment [1], the IC50 (as a rule, the concentration that gives 50% inhibition) turned out to be 9.82 µM. Also, the inhibition constant (Ki) (commonly the equilibrium dissociation constant of an inhibitor or competing ligand from its target) in experiment [2] worked out at 5.09 ± 1.51 µM.

The record behind these values is PMC12386980, “Functional Analysis of NPC2 in Alarm Pheromone Recognition by the Red Imported Fire Ant, Solenopsis invicta (Formicidae: Solenopsis)” (Insects, 2025).
